Assay results as given in patent US20140079836A1, “METHODS AND COMPOSITIONS FOR ALTERING HEALTH, WELLBEING, AND LIFESPAN” (LifeSpan Extension, LLC, priority 2008, published 2014).

Experiments:
[1] = tested on: genes involved in longevity (Array 1); assay: Custom RT-PCR microarray (Array 1) gene expression in skin fibroblasts, UVB/UVA1; type: cell-based, human; conditions: donor three IDE + UVB vs. Green tea + UVB Continuous Incubation; for PPC gene expression fold change / RTC gene expression fold change: control well
Protocol: Seeding of cells: On Day 1, each cell culture was seeded into 6 well cluster dishes at ˜1.5×10^5 cells in 4 mls medium per well. Three wells were seeded per test condition or control.
Experimental phase: On Day 3, wells were washed 1× with 2 mls medium, fed back 2 mls medium without fetal bovine serum and preincubated for 30-60 minutes before challenge with test or control conditions. After the preincubation, medium was aspirated from the wells and 2.5 mls of test or control condition in medium with 1% fetal bovine serum was pipetted into the appropriate wells.
(3) UVA1, UVB exposed and unexposed cells without test condition were used as controls. The experimental phase ended at 24 hours post UV exposure. Cells from each test and control parameter were then prepped for RNA isolation as described below.
UVB/UVA1 exposure: Cells exposed to UV received 200 mJ/cm^2 UVB/1 MED UVA1 using Thermo Oriel solar simulator model SP66923-3056. Cells were exposed from the bottom of the culture dish. The UV dose delivered to the cells was adjusted for interference from the plastic in the culture dish.
Preparation of RNA: The RNA was isolated using the Qiagen RNEasy Plus Mini Kit according to the manufacturer's protocol which can be found on the World Wilde Web at qiagen.com/literature/Defaultaspx?Term=&Language=EN&LiteratureType=4& ProductCategory=10162. The RNA was quantified and examined for purity using the 260/280 nm read method in a μ Quant spectrophotometer before use in the array.
Creation and Performance of a Custom Microarray (“Array 1”): Through the Custom Array design service of Superarray Bioscience Corporation, a 96 well RT-PCR microarray (“Array 1”) was developed to illustrate genetic responses in cells treated as above for specific genes involved in longevity as well as the relevant quality controls. The array was performed in compliance with manufacturer's guidelines and by recommended manufacturer's protocol as can be found on the World Wilde Web at superarray.com/Manual/perarrayplate.pdf
Custom Microarray Results: The results from the microarrays were determined using the delta CT method which uses comparisons of control genes and threshold cycles of genes of interest to generate relative expression values. The full set of experimental conditions was cross referenced and the data is provided herewith in DATA TABLE 3.
Preparation of RNA: The RNA was isolated using the Qiagen RNEasy Plus Mini Kit according to the manufacturer's protocol which can be found on the World Wide Web at qiagen.com/literature/Default. aspx?Term=&Language=EN&LiteratureType=4&ProductCategory=10162.
The RNA was quantified and examined for purity using the 260/280 nm read method in a μ Quant spectrophotometer before use in the array.
Creation and Performance of the Custom Microarray: Through the Custom Array design service of Superarray Bioscience Corporation, a 96 well RT-PCR Microarray was developed to illustrate genetic responses in cells treated as above for specific genes involved in longevity as well as the relevant quality controls. The array was performed in compliance with manufacturer's guidelines and by recommended manufacturer's protocol as can be found on the World Wide Web at superarray.com/Manual/perarrayplate.pdf.
Custom Microarray Results: The results from the microarrays were determined using the delta CT method which uses comparisons of control genes and threshold cycles of genes of interest to generate relative expression values. The full set of experimental conditions was cross referenced and the data is provided herewith in DATA TABLE 4.
Custom Microarray Results: The results from the microarrays were determined using the delta CT method which uses comparisons of control genes and threshold cycles of genes of interest to generate relative expression values. The full set of experimental conditions was cross referenced and the data is provided herewith in DATA TABLE 5. […]

[2] = tested on: custom array genes; assay: Chlorogenic acid challenge, custom RT-PCR microarray, dermal fibroblasts ag07999; type: cell-based, human; conditions: 24 hours
Protocol: Human dermal fibroblasts (ag07999) were seeded at near confluency in 6-well dishes in 4 ml MEM, 10% FBS/well. 24 hours after seeding, wells were aspirated and 3 ml chlorogenic acid dilution in MEM, 1% FBS added, or MEM, 1% FBS only for control wells. Chlorogenic acid (Acros Organics, Geel, Belgium) dilutions used were: 0.005%, 0.0005%, 0.00005%, 0.000005% and 0.0000005%. 24 hours after chlorogenic acid challenge, wells were aspirated, 1 ml trypsin-EDTA added to each well, swirled and aspirated. Trypsin-EDTA was again added to each well and cells retrieved with MEM 10% FBS when released from the substratum and centrifuged to a pellet.
RNA was collected from the harvested cells according to protocol using RT2 qPCR-Grade RNA Isolation Kit from SABiosciences Co. The RNA was then used to create cDNA (using a First Strand Synthesis Kit, SABiosciences, and following the manufacturer's instructions) and run on the BioRad iCycler RT-PCR machine using Custom RT-PCR Microarray (CAPH09464A, SABiosciences) (Array 1) and SYBR Green Reaction Mix (SABiosciences). Data from Example 16 are shown in FIG. 19; additional results are described and analyzed below.

COC1=C(OC)C(=O)C(CCCCCCCCCCO)=C(C)C1=O [IDE]
ACE gene expression fold change [1]: −1.13 | ACTB gene expression fold change [1]: −2.17 | APOE gene expression fold change [1]: 2.43 | BAX gene expression fold change [1]: −1.01 | BCL2 gene expression fold change [1]: 2.04 | CASP2 gene expression fold change [1]: −1.96 | CASP9 gene expression fold change [1]: 2.11 | CCL4L1 gene expression fold change [1]: 16.91 | CLK1 gene expression fold change [1]: 1.02 | COX1 gene expression fold change [1]: 1.17 | CREBBP gene expression fold change [1]: 1.49 | CYP19A1 gene expression fold change [1]: 24.76 | DDC gene expression fold change [1]: 58.89 | GAPDH gene expression fold change [1]: −2.10 | GH1 gene expression fold change [1]: 17.51 | HIGX1A gene expression fold change [1]: 40.22 | HLA-DRA gene expression fold change [1]: 65.34 | HPRT1 gene expression fold change [1]: 1.30 | HSPA1A gene expression fold change [1]: −1.54 | HSPA1B gene expression fold change [1]: −2.03 | HSPA1L gene expression fold change [1]: −1.39 | IFI44 gene expression fold change [1]: 1.09 | IGF1 gene expression fold change [1]: 4.23 | IGF2 gene expression fold change [1]: −1.16 | IL1A gene expression fold change [1]: 10.41 | IL6 gene expression fold change [1]: −1.25 | IL10 gene expression fold change [1]: 3.20 | KRAS gene expression fold change [1]: 1.21 | MAPK14 gene expression fold change [1]: −1.39 | NADSYN1 gene expression fold change [1]: −2.33 | NFKB1 gene expression fold change [1]: −1.13 | NOS2A gene expression fold change [1]: 40.22 | PARP1 gene expression fold change [1]: −2.68 | PARP2 gene expression fold change [1]: 22.32 | PPARG gene expression fold change [1]: 5.39 | PTGS2 gene expression fold change [1]: 3.68 | SHC1 gene expression fold change [1]: −1.54 | SIRT1 gene expression fold change [1]: 1.39 | SOD1 gene expression fold change [1]: −2.03 | SOD2 gene expression fold change [1]: −1.13 | TEP1 gene expression fold change [1]: 1.06 | TERT gene expression fold change [1]: 3.56 | TNF gene expression fold change [1]: 16.91 | TP53 gene expression fold change [1]: 1.39 | PPC gene expression fold change ([1]; entry r305): −1.48 | RTC gene expression fold change ([1]; entry r306): 1.09 | PPC gene expression fold change ([1]; entry r311): −1.77 | RTC gene expression fold change ([1]; entry r312): −3.29

O=C(/C=C/c1ccc(O)c(O)c1)O[C@@H]1C[C@](O)(C(=O)O)C[C@@H](O)[C@H]1O [chlorogenic acid, -[[3-(3,4-Dihydroxyphenyl)-1-oxo-2-propenyl]oxy]-1,4,5-trihydroxycyclohexanecarboxylic acid]
IFI44 relative expression ([2]; FIG. 17): may significantly decrease expression | expression of genes in the mitochondrial function/biogenesis pathway ([2]; FIG. 21a): primarily decreases gene expression | PTGS2 relative expression ([2]; at higher concentrations, FIG. 16): significant decrease in PTGS2 gene expression | NOS2A relative expression ([2]; increasing concentrations, FIG. 13): biphasic response | SIRT1 relative expression ([2]; increasing concentrations, FIG. 14): entirely decreasing expression | CCL4L1 relative expression ([2]; middle dosage (0.00005%), FIG. 11): marked repression
